One data set concerns Human alphaherpesvirus 1. The data set is described as follows: Antiviral activity against Human herpesvirus 1 infected African green monkey Vero cells assessed as protection against virus-induced cytopathic effect after 3 days by plaque reduction assay. Format: functional, organism-based. The conditions noted are these: Human alphaherpesvirus 1, Vero, 72 h. Background: Damage to the host cells serves as the signal in cytopathic effect assays.

A short description of data set [1]: Selectivity index, ratio of CC50 for african green monkey Vero cells to EC50 for HSV1 infected in African green monkey Vero cells.
Data set [2] can be described thus: Cytotoxicity against Chlorocebus aethiops (African green monkey) Vero cells assessed as cell viability after 3 days by Alamar blue assay. It is filed as cell-based. The conditions noted are these: chlorocebus sabaeus. A general note: Alamar Blue is a resazurin reagent that responds to reducing activity.

Each structure is given as a SMILES string. Values after ≈ are worked out from the molar mass of the structure shown.

Regarding `Cc1ccc2[nH]c(SCc3nc(N)nc(Nc4ccccc4C)n3)nc2c1`, in the data set on Human alphaherpesvirus 1, the EC50 is greater than 10 µg/mL.
Consider `COc1ccc(Nc2nc(N)nc(CSc3nnc(-c4ccccc4)n3-c3ccccc3)n2)cc1`, for which, in the data set with Human alphaherpesvirus 1, the EC50 is greater than 10 µg/mL.
`Cc1ccccc1Nc1nc(N)nc(CSc2nnc(-c3ccccc3)n2-c2ccccc2)n1`: the “Ratio CC50/EC50” value in data set [1] is 234. For the same compound, in data set [2], the CC50 at 72 h worked out at 1750 µg/mL (≈ 3750 µM). Moreover, the EC50 in the data set on Human alphaherpesvirus 1 was 7.5 µg/mL (≈ 16.1 µM).
For `COc1ccc(Nc2nc(N)nc(CSc3nnc(-c4ccncc4)n3-c3ccccc3)n2)cc1`, in that order: 215, 1500 µg/mL (≈ 3100 µM) and 7 µg/mL (≈ 14.5 µM).
For `Cc1ccccc1Nc1nc(N)nc(CSc2nnc(-c3ccncc3)n2-c2ccccc2)n1`, the “Ratio CC50/EC50” value in data set [1] came out at 275. Further, the CC50 at 72 h in data set [2] worked out at 1650 µg/mL (≈ 3530 µM). In addition, the EC50 in the data set with Human alphaherpesvirus 1 is 6 µg/mL (≈ 12.8 µM).
As to `COc1ccc(Nc2nc(N)nc(CSc3nnc(-c4ccccc4)n3/N=C/c3ccccc3)n2)cc1`, in data set [1], the “Ratio CC50/EC50” value came out at 188. Besides, the CC50 at 72 h in data set [2] turned out to be 1500 µg/mL (≈ 2940 µM). The EC50 with Human alphaherpesvirus 1 is 8 µg/mL (≈ 15.7 µM).
The matching figures for `Cc1ccccc1Nc1nc(N)nc(CSc2nnc(-c3ccccc3)n2/N=C/c2ccccc2)n1`: 358, 1250 µg/mL (≈ 2530 µM) and 3.5 µg/mL (≈ 7.09 µM).
The matching figures for `Cc1ccccc1Nc1nc(N)nc(CSc2nnc(-c3ccccc3)n2/N=C/c2ccc(Br)cc2)n1`: 300, 1500 µg/mL (≈ 2620 µM) and 5 µg/mL (≈ 8.73 µM).
For `Nc1nc(CSc2nc3ccccc3[nH]2)nc(Nc2ccccc2)n1`, the half-maximal effective concentration (EC50) with Human alphaherpesvirus 1 is greater than 10 µg/mL.
Still for that read-out and setting: under `Cc1ccc(Nc2nc(N)nc(CSc3nc4ccccc4[nH]3)n2)cc1` stands greater than 10 µg/mL.
With `Nc1nc(CSc2nc3ccccc3[nH]2)nc(Nc2ccc(Cl)cc2)n1`, in data set [1], the “Ratio CC50/EC50” value came to 175. Further, the CC50 at 72 h in data set [2] is 1500 µg/mL (≈ 3910 µM). For the same compound, the EC50 in the data set with Human alphaherpesvirus 1 was 8.5 µg/mL (≈ 22.1 µM).
In the case of `COc1ccc(Nc2nc(N)nc(CSc3nc4ccccc4[nH]3)n2)cc1`, in the data set with Human alphaherpesvirus 1, the EC50 was greater than 10 µg/mL.
For the compound `Cc1ccccc1Nc1nc(N)nc(CSc2nc3ccccc3[nH]2)n1`, the CC50 at 72 h in data set [2] is greater than 2000 µg/mL. In addition, the EC50 with Human alphaherpesvirus 1 worked out at 9 µg/mL (≈ 24.8 µM).
On to `Cc1ccc2[nH]c(SCc3nc(N)nc(Nc4ccccc4)n3)nc2c1`, for which the EC50 in the data set with Human alphaherpesvirus 1 was greater than 10 µg/mL.
In the case of `Cc1ccc(Nc2nc(N)nc(CSc3nc4cc(C)ccc4[nH]3)n2)cc1`, in the data set on Human alphaherpesvirus 1, the half-maximal effective concentration (EC50) was greater than 10 µg/mL.
Regarding `Nc1nc2c(ncn2COCCO)c(=O)[nH]1` [ACYCLOVIR], in data set [1], the “Ratio CC50/EC50” value is reported as 850. Moreover, the CC50 at 72 h in data set [2] is 1280 µg/mL (≈ 5660 µM). Moreover, the EC50 in the data set with Human alphaherpesvirus 1 was 1.5 µg/mL (≈ 6.66 µM).

By EC50 is commonly meant the concentration needed to bring the measured effect to its halfway point. The term CC50 denotes the concentration at which the toxic effect on the cells reaches its halfway point.

For the origin of these results see ChEMBL document CHEMBL3046134, “Synthesis and antiviral activity of benzimidazolyl- and triazolyl-1,3,5-triazines” (Med Chem Res, 2012).
